Laboratory results taken from patent publication US20230382920A1, “SHMT Inhibitors” (The Trustees of Princeton University, priority 2020, published 2023).
Structures can show the parent of a compound that is named as a salt. Where two headings read alike, the source gives them in different places.

Experiment: Pharmacokinetics study of KDG-0320-0A in male CD1 mice (Example 1)
Assay type: in vivo
Settings: for F: bioavailability vs 1 mg/kg IV; for MRT inf: read-out: MRTInf_obs
Protocol: A standard pharmacokinetic (PK) study of KDG-0320-0A was performed in male CD1 mice dosed with a single oral, intravenous or intraperitoneal dose of KDG-0320-0A. The parameters of the PK study are described in Table 2. Dosing solutions were freshly made prior to use. […] For IV, PO and IP, after collection, plasma samples from the same time point were pooled, and the pooled samples were analyzed by LC/MS/MS.
The desired serial concentrations of working solutions were achieved by diluting stock solution of analyte with 50% acetonitrile in water solution. 5 μL of working solutions (2, 4, 10, 20, 100, 200, 1000, 2000 ng/mL) were added to 10 μL of blank CD1 mouse plasma to achieve calibration standards of 1-1000 ng/mL (1, 2, 5, 10, 50, 100, 500, 1000 ng/mL) in a total volume of 15 μL. Four quality control (QC) samples at 2 ng/mL, 5 ng/mL, 50 ng/mL and 800 ng/mL for plasma were prepared independently of those used for the calibration curves. These QC samples were prepared on the day of analysis in the same way as calibration standards.
15 μL standards, 15 μL QC samples and 15 μL unknown samples from the blood sampling (10 μL plasma with 5 μL blank solution) were added to 200 μL of acetonitrile containing IS mixture for precipitating protein. Then, the samples were vortexed for 30 seconds. After centrifugation at 4 degrees Celsius, 4000 rpm for 15 minutes, the supernatant was diluted three times with water. 15 μL of diluted supernatant was injected into the LC/MS/MS system for quantitative analysis.
BLOQ=Below quantifiable limit of 1 ng/mL. PK parameters were estimated by non-compartmental model using WinNonlin 6.1. The PO bioavailability (F %) was calculated as following:
AUClast-PO/AUCINF-PO>80%: F=(AUCINF-PO*DoseIV)/(mean AUCINF-IV*DosePO) AUClast-PO/AUCINF-PO≤80% or AUCINF was not available: F=(AUClast-PO*DoseIV)/(mean AUClast-IV*DosePO).
The IP bioavailability (F %) was calculated as following:
AUClast-IP/AUCINF-IP>80%: F=(AUCINF-IP*DoseIV)/(mean AUCINF-IV*DoseIP) AUClast-IP/AUCINF-IP≤80% or AUCINF was not available: F=(AUClast-IP*DoseIV)/(mean AUClast-IV*DoseIP).

[1] = mouse, plasma, 1 mg/kg IV, read-out: Concentration IV_Mean
[2] = mouse, plasma, 30 mg/kg IP, read-out: Concentration IP_Mean
[3] = mouse, plasma, 50 mg/kg PO, read-out: Concentration PO_Mean

`Cc1n[nH]c2c1C(c1cc(C#C[C@H]3CC[C@H](NC(=O)OC(C)(C)C)CC3)cc(CO)c1)(C(C)C)C(C#N)=C(N)O2` (some centres unmarked) [KDG-0320, tert-butyl N-[(1r,4r)-4-[2-(3-[6-amino-5-cyano-4-isopropyl-3-methyl-1H-pyrano[2,3-c]pyrazol-4-yl]-5-(hydroxymethyl)phenyl)ethynyl]cyclohexyl]carbamate hydrochloride] showed an AUC_%Extrap_obs (1 mg/kg IV) of 2.88%, an AUClast/D (1 mg/kg IV) of 155 kg·ng·h/mL/mg and a Cl_obs (1 mg/kg IV) of 104 mL/min/kg. It also gave a Vss_obs (1 mg/kg IV) of 3.96 L/kg, an AUC_%Extrap_obs (30 mg/kg IP) of 1.41% and an AUClast/D (30 mg/kg IP) of 258 kg·ng·h/mL/mg. For the same compound, the F (30 mg/kg IP) was 164%, the AUC_%Extrap_obs (50 mg/kg PO) was 1.77% and the AUClast/D (50 mg/kg PO) was 32.5 kg·ng·h/mL/mg. For the same compound, the F (50 mg/kg PO) was 20.8%, the AUC(0-inf) (mouse, plasma, 1 mg/kg IV) was 160 ng·h/mL and the AUC(0-t) (mouse, plasma, 1 mg/kg IV) was 155 ng·h/mL. The C0 (mouse, plasma, 1 mg/kg IV) was 575 ng/mL, the half-life (mouse, plasma, 1 mg/kg IV) was 1.04 h and the concentration at 0.083 h (mouse, plasma, 1 mg/kg IV, 0.083 h, read-out: Concentration IV_Mean) was 363 ng/mL. It also gave a concentration at 0.25 h [1] of 144 ng/mL, a concentration at 0.5 h [1] of 60.2 ng/mL and a concentration at 1 h [1] of 25.7 ng/mL. The concentration at 2 h [1] was 7.16 ng/mL, the concentration at 4 h [1] was 3.07 ng/mL and the MRT inf (mouse, plasma, 1 mg/kg IV) was 0.632 h. The AUC(0-inf) (mouse, plasma, 30 mg/kg IP) was 7840 ng·h/mL, the AUC(0-t) (mouse, plasma, 30 mg/kg IP) was 7730 ng·h/mL and the Cmax (mouse, plasma, 30 mg/kg IP) was 7460 ng/mL. The Tmax (mouse, plasma, 30 mg/kg IP) was 0.25 h, the half-life (mouse, plasma, 30 mg/kg IP) was 1.66 h and the concentration at 0.25 h [2] was 7460 ng/mL. For the same compound, the concentration at 0.5 h [2] was 5240 ng/mL, the concentration at 1 h [2] was 3060 ng/mL and the concentration at 2 h [2] was 589 ng/mL. It also gave a concentration at 4 h [2] of 211 ng/mL, a concentration at 8 h (mouse, plasma, 30 mg/kg IP, 8 h, read-out: Concentration IP_Mean) of 46.2 ng/mL and an MRT inf (mouse, plasma, 30 mg/kg IP) of 1.27 h. It also gave an AUC(0-inf) (mouse, plasma, 50 mg/kg PO) of 1660 ng·h/mL, an AUC(0-t) (mouse, plasma, 50 mg/kg PO) of 1630 ng·h/mL and a Cmax (mouse, plasma, 50 mg/kg PO) of 605 ng/mL. The Tmax (mouse, plasma, 50 mg/kg PO) was 1 h, the half-life (mouse, plasma, 50 mg/kg PO) was 1.28 h and the concentration at 0.25 h [3] was 117 ng/mL. The concentration at 0.5 h [3] was 315 ng/mL, the concentration at 1 h [3] was 605 ng/mL and the concentration at 2 h [3] was 411 ng/mL. The concentration at 4 h [3] was 126 ng/mL, the concentration at 8 h (mouse, plasma, 50 mg/kg PO, 8 h, read-out: Concentration PO_Mean) was 15.8 ng/mL and the MRT inf (mouse, plasma, 50 mg/kg PO) was 2.3 h. The “Concentration IV_Mean” value (plasma, 1 mg/kg IV, 8 h) was “BLOQ” and the clinical symptoms (single dose 1 mg/kg IV, 50 mg/kg PO or 30 mg/kg IP, entire experiment) was “No abnormal clinical symptoms were observed”.
